Assay results reported in PMC7580834, “Inhibition mechanism of naphthylphenylamine derivatives acting on the CDC25B dual phosphatase and analysis of the molecular processes involved in the high cytotoxicity exerted by one selected derivative in melanoma cells” (Journal of Enzyme Inhibition and Medicinal Chemistry, 2020).

Columns and labels:
[1] = system: cytochrome c in A2058 cells; test: Cytochrome c subcellular localisation (immunofluorescence and Western blotting of fractions); assay type: cell-based, human; settings: 10 µM, 24 h
Description: (§1) To obtain the total protein extract, cells were seeded into 6-well-plates (3 × 10^5 cells/plate) for 24 h at 37 °C and then treated with 4a or 0.5% (v/v) DMSO. After treatment, cells were harvested, washed with PBS, and then lysed in ice-cold modified radio immunoprecipitation assay (RIPA) buffer (50 mM Tris•HCl, pH 7.4, 150 mM NaCl, 1% Nonidet P-40, 0.25% sodium deoxycholate, 1 mM Na3VO4 and 1 mM NaF), supplemented with protease inhibitors and incubated for 30 min on ice. The supernatant, obtained after centrifugation at 13200 g for 30 min at 4 °C, constituted the total protein extract. Protein concentration was determined by the Bradford method, using bovine serum albumin (BSA) as standard. To obtain the cytosolic and mitochondrial fractions, cells were plated at a density of 2 × 10^6 cells/plate for 24 h at 37 °C. After the treatment with 4a or 0.5% (v/v) DMSO, cells were harvested, washed in PBS, and then resuspended in buffer A (5 mM Hepes, pH 7.4, 250 mM mannitol, 0.5 mM EGTA, 0.1% BSA), supplemented with protease inhibitors, and homogenised. The homogenate was centrifuged at 600 g for 5 min at 4 °C and the supernatant was then centrifuged at 10300 g for 10 min at 4 °C. The resulting supernatant represented the cytosolic fraction, whereas the pellet, constituting the mitochondrial fraction was resuspended in RIPA buffer. Protein concentration was determined as previously indicated. Equal amounts of total, cytosolic or mitocondrial protein extracts were used for Western blotting analysis. Briefly, protein samples were dissolved in SDS-reducing loading buffer, run on sodium dodecylsulfate polyacrylamide gel electrophoresis (SDS/PAGE), and then transferred to Immobilon P membrane (Millipore, Saint Louis, MO, USA). The filter was incubated with the specific primary antibody at 4 °C overnight and then with the secondary antibody at room temperature for 1 h. Membranes were then analysed by an enhanced chemiluminescence reaction using WesternBright ECL (Advansta, San Jose, CA, USA) according to manufacturer’s instructions; signals were visualised by autoradiography. The analysis of pAkt protein levels was performed as previously described. Briefly, filters were first incubated with the anti-pAkt primary antibody and then with the secondary antibody and membranes were analysed by an enhanced chemiluminescence reaction as previously indicated. The same filters were then stripped, using AbCam (Cambridge, UK) stripping solution, pH 2 (200 mM glycine, 3.5 mM SDS, 1% Tween-20) at 45 °C for 30 min, washed 3 times with PBS-Tween 0.1%, incubated with anti-Akt primary antibody and then with the relative secondary antibody. Signals were detected as previously specified.
(§2) Immunofluorescence experiments were carried out essentially as previously described. […]

[2] = system: cytochrome c in A375 cells; test: as above; assay type: cell-based, human; settings: 10 µM, 24 h
Description: as §1, §2

OMFP-bound CDC25B-C473S = test: Intrinsic fluorescence quenching of CDC25B-C473S in the presence of 5 µM OMFP (Stern-Volmer); assay type: binding
From the text: The mutant form of CDC25B, carrying the C473S replacement (CDC25B-C473S), was obtained through site-directed mutagenesis of the CDC25B catalytic segment cloned in pET28a-CDC25B-cd. To this aim, the QuikChange site-directed mutagenesis kit (Stratagene, La Jolla, CA, USA) and the forward and reverse primers for C473S replacement (5′d-[…]-3′ and 5′d-[…]-3′) were used. Positive clones were obtained, and the nucleotide sequencing of the mutagenised segment excluded the presence of undesired mutations. The new vector was called pET28a-CDC25B-C473S-cd. The expression of the new vector and the purification of the recombinant form of CDC25B-C473S catalytic domain were carried out as previously reported for wild-type CDC25B catalytic domain[18], and similar yields were obtained. As expected, the mutant enzyme was unable to hydrolyse the synthetic substrate OMFP, when its activity was checked with the fluorimetric assay method previously described.
Fluorescence spectra were recorded at 20 °C using a computer-assisted Cary Eclipse spectrofluorimeter (Varian, Palo Alto, CA, USA) equipped with an electronic temperature controller. The excitation wavelength was set at 280 nm and the excitation and emission slits were set at 10 and 20 nm, respectively. A 500 µL final volume of a 0.2 µM solution of CDC25B or CDC25B-C473S dissolved in 20 mM Tris•HCl, pH 7.8, 0.5 mM TCEP was directly prepared in the fluorimetric cuvette in the absence or in the presence of OMFP and/or some NPA derivatives. Serial pre-dilutions of the NPA derivatives or OMFP at increasing concentration were prepared in DMSO or methanol, respectively. Alongside, a convenient amount of the enzyme pre-dilution was prepared just before its usage for the experiment and stored on ice. When the combined effect of NPA derivative and OMFP was investigated, two enzyme pre-dilutions were prepared in the absence or in the presence of 5 µM OMFP. In order to evaluate the specific effect produced by any addition of solvent/ligand on the intrinsic fluorescence of the enzyme, 495 µL of the enzyme pre-dilution were placed in the fluorimetric cuvette and the relative spectrum was recorded; after the addition of 5 µL of each pre-dilution of solvent/ligand and fast mixing, the spectrum was recorded again. This procedure, repeated for each experimental point, allowed a normalisation of the specific effects produced by solvent/ligands. Furthermore, a correction was also applied for the little inner-filter effect due to the absorbance at 280 nm of the NPA derivative used at different concentrations; on the other hand, no correction was necessary for OMFP. All spectra, recorded at a scan speed of 120 nm/min, were normalised and corrected.

KSV (Stern-Volmer constant) (OMFP-bound CDC25B-C473S; 0.2 µM CDC25B-C473S, in the presence of 5 µM OMFP): 0.031 µM⁻¹
K′D/Ki ratio (OMFP-bound CDC25B-C473S; K′D of OMFP-bound CDC25B-C473S•inhibitor over Ki): 3.8
SMILES: CCOC(=O)c1cccc(Nc2cc(OC)cc3ccccc23)c1 [4a]
cytochrome c localisation, Western blotting of cytosolic and mitochondrial extracts [1]: significant cytosolic translocation
cytochrome c localisation, immunofluorescence [1]: induces a cytosolic translocation of cytochrome c
cytochrome c localisation, Western blotting of cytosolic and mitochondrial extracts [2]: significant cytosolic translocation
cytochrome c localisation, immunofluorescence [2]: induces a cytosolic translocation of cytochrome c
